The values that follow come from paper PMC6801902, “Directed Evolution of Clostridium thermocellum β-Glucosidase A Towards Enhanced Thermostability” (International Journal of Molecular Sciences, 2019).

The target of test [1] is C. thermocellum BglA (β-glucosidase A, Clo1313_2020) (Acetivibrio thermocellus, UniProt P26208). Description: continuous p-nitrophenol release at OD405, nonlinear fit (GraphPad Prism). In kind it is biochemical. The conditions noted are these: 50 mM citrate buffer pH 6.1, 60 °C, 0-25 mM pNPG, 13 nM enzyme; read-out: Wild Type. The text has this:
(§1) continuous p-nitrophenol release at OD405, nonlinear fit (GraphPad Prism) on C. thermocellum BglA (β-glucosidase A, Clo1313_2020)

Test [2] concerns the target C. thermocellum BglA (β-glucosidase A, Clo1313_2020) (Acetivibrio thermocellus, UniProt P26208, A17S/K268N, form not given). The test is described as above. The conditions noted are these: 50 mM citrate buffer pH 6.1, 60 °C, 0-25 mM pNPG, 13 nM enzyme; thermostable mutant Mut 1. In kind it is biochemical.
From the text: as §1

Sequence of C. thermocellum BglA (β-glucosidase A, Clo1313_2020) (Acetivibrio thermocellus, UniProt P26208) (P26208 whole entry): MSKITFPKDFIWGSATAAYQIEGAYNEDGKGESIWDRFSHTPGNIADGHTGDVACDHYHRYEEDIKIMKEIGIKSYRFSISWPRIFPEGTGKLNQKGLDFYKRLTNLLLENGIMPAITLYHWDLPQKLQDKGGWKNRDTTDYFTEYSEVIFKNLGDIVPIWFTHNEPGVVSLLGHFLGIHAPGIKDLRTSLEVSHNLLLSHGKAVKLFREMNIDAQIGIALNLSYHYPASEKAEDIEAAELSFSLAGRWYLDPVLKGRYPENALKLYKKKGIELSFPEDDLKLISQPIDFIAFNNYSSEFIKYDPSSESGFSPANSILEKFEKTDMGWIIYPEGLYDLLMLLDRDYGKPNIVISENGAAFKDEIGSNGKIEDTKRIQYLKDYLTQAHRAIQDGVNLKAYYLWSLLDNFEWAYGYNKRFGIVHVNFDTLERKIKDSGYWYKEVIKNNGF
Sequence of C. thermocellum BglA (β-glucosidase A, Clo1313_2020) (Acetivibrio thermocellus, UniProt P26208, A17S/K268N, form not given) (P26208 whole entry A17S/K268N, form open): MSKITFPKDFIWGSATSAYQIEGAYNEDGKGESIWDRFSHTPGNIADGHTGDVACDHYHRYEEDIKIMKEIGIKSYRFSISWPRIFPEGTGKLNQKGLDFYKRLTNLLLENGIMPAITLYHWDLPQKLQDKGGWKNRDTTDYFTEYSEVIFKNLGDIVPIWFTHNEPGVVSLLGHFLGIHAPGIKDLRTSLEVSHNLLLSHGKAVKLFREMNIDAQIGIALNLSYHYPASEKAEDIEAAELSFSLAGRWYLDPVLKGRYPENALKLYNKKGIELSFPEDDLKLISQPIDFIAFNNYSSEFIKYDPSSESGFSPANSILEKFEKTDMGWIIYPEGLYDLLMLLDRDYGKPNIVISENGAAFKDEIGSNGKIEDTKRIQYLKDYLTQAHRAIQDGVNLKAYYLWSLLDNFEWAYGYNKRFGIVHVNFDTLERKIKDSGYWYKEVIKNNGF

`O=[N+]([O-])c1ccc(O[C@@H]2O[C@H](CO)[C@@H](O)[C@H](O)[C@H]2O)cc1` [pNPG, p-nitrophenyl-β-D-glucopyranoside]: the figures for the Km in test [1] and in test [2] were 6.7 ± 1.11 mM and 5 ± 0.59 mM, respectively.
